Here are results for three molecules from ChEMBL document CHEMBL1201862, “PubChem BioAssay data set” (2004).

Common to all, as to format: functional
For assay [1], the target named is T1, Sentrin-specific protease 8 (Homo sapiens, UniProt Q96LD8).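 Also: luminescence read-out of SENP8 inhibition, dose-response confirmation following an ultra-high-throughput screen.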
T1 sequence (Q96LD8 whole entry): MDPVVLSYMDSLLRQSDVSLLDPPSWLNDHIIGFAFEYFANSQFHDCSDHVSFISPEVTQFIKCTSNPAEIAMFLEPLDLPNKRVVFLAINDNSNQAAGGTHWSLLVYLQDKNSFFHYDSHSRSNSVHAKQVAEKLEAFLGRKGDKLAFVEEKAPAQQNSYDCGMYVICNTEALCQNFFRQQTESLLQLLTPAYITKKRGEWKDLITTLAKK

Assay [2] concerns the target T2, Endoribonuclease toxin MazF (Escherichia coli K-12, UniProt P0AE70).
T2 sequence (P0AE70 whole entry): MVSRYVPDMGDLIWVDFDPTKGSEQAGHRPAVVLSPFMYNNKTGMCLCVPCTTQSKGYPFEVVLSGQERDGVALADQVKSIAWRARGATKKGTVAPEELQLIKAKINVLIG
Put plainly: activation of MazEF endoribonuclease cleavage – biochemical, fluorescence, single-stranded RNA substrate, uHTS hits, dose response (AID 588481).

For assay [3], the target named is Acetyl-CoA acetyltransferase/HMG-CoA reductase (Enterococcus faecalis, UniProt Q9FD70). The assay can be described thus: class II HMG-CoA reductase inhibition potency – biochemical, Enterococcus faecalis, confirmation (AID 1233).
Assay [4] has as its target T3, Microphthalmia-associated transcription factor (Homo sapiens, UniProt O75030).
T3 sequence (O75030 whole entry): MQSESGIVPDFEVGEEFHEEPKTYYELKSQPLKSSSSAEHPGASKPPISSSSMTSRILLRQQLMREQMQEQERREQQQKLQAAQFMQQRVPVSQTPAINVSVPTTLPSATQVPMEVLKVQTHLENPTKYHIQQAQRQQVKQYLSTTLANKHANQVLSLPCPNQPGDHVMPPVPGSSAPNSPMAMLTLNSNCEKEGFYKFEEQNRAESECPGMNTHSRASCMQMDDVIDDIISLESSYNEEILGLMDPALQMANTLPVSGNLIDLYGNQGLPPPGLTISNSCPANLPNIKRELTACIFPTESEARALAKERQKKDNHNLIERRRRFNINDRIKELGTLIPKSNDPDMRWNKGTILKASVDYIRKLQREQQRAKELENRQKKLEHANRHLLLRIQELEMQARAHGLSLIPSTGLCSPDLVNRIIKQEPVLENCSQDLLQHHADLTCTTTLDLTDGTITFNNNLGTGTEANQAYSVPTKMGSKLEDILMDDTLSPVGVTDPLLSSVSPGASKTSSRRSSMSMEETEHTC
Put plainly: reducers of TRPM1 reporter luminescence, concentration series – cell-based, SK-MEL-5, cherry-picked, set 3, MITF inhibitor project, dose response (AID 493073).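 Also: SK-MEL-5 melanoma cells with luciferase driven by the MITF target TRPM1 promoter.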

For another assay, the target named is Genome polyprotein (dengue virus type 2, UniProt P29990). The assay can be described thus: flavivirus cap methylation enzyme inhibition – biochemical, confirmation dose response, primary screen (AID 588689).

Molecules are shown by their SMILES. Activity calls are given as the source filed them. Where only a bound is given, the exact number is not on record here.

Genome polyprotein, sequence (P29990 2492-3391 limits assumed): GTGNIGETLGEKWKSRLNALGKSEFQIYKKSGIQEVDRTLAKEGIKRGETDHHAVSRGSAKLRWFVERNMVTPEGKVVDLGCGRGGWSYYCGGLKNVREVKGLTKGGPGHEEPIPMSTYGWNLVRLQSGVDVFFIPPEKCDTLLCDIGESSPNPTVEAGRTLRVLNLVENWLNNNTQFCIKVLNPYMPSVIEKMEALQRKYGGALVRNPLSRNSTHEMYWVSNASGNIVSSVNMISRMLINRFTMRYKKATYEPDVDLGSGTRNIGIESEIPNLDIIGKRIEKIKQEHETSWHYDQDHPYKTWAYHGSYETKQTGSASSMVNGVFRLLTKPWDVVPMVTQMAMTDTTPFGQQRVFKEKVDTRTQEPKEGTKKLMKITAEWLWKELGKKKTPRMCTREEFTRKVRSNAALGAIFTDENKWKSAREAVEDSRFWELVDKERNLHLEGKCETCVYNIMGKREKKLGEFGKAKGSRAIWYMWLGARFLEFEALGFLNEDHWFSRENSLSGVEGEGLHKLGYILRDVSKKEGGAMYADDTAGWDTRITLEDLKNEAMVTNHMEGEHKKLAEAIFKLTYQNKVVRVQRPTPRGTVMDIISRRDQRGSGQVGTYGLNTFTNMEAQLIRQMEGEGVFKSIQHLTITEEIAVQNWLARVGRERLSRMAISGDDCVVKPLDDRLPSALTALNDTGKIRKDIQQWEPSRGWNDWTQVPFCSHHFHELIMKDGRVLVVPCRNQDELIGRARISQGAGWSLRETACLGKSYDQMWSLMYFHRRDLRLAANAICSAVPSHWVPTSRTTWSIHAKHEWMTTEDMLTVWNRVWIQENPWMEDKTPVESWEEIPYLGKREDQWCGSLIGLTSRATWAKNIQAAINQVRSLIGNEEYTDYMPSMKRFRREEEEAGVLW

The term IC50 denotes the midpoint of a concentration-inhibition curve. As for `CC(C)=CCC1=C(OCC(=O)O)C(=O)c2ccccc2C1=O`, the IC50 in assay [1] was 3.91 µM (active). What is called EC50 is the concentration giving half of the maximal effect. Consider `Cc1[nH][nH]c(=O)c1C(c1c(C)[nH][nH]c1=O)c1cn(Cc2ccccc2Cl)c2ccccc12`, for which, in assay [2], the EC50 is > 99 µM (inactive). The IC50 in assay [3] was 91 µM (active). Usually AC50 stands for the midpoint of the concentration-response curve, whichever way the signal moves. Consider `Cc1cccc(NC2=C(NC(=O)c3ccccc3)C(=O)c3ccccc3C2=O)c1`, for which, in assay [4], the AC50 was 9.99 µM (active). In addition, on Genome polyprotein, the IC50 is 58.4 µM (active).
